Data reported in patent publication US7855166B2, “Sulfonylamino(thio)carbonyl compounds” (Bayer Cropscience GmbH, priority 2005, dated 2010).

How the values were obtained:
[1] = tested on: weed plants such as Sinapis alba, Chrysanthemum segetum, Avena sativa, Stellaria media, Echinochloa crus-galli, Lolium multiflorum, Setaria viridis, Abutilon …; assay: Pre-emergence effect on weeds (greenhouse pot test, visual scoring); assay type: in vivo; conditions: applied pre-emergence at a rate of 0.3 kg or less of active substance per hectare; scored after 3 to 4 weeks in comparison to untreated controls
[2] = tested on: weed plants such as Sinapis alba, Echinochloa crus-galli, Lolium multiflorum, Chrysanthemum segetum, Setaria viridis, Abutilon theophrasti, Amaranthus …; assay: Post-emergence effect on weeds (greenhouse pot test, visual scoring); assay type: in vivo; conditions: applied post-emergence (three-leaf stage) at a rate of 0.3 kg or less of active substance per hectare; scored after about 3 to 4 weeks in comparison to untreated controls

Structure (SMILES)	herbicidal action against weed plants (visual scoring of plant damage or emergence damage) [1]	herbicidal action against weed plants (effect scored visually) [2]
CCOc1cccc(I)c1S(=O)(=O)NC(=O)n1nc(OCC)n(C2CC2)c1=O [Compound 1.221]	very good herbidical action	very good herbicidal action
CCCOc1cccc(I)c1S(=O)(=O)NC(=O)n1nc(OC)n(C)c1=O [Compound 1.231]	very good herbidical action	very good herbicidal action
CCCOc1cccc(I)c1S(=O)(=O)NC(=O)n1nc(OCCC)n(C)c1=O [Compound 1.235]	very good herbidical action	very good herbicidal action
CCCOc1cccc(I)c1S(=O)(=O)NC(=O)n1nc(OC(C)C)n(C)c1=O [Compound 1.236]	very good herbidical action	very good herbicidal action
CCCOc1cccc(I)c1S(=O)(=O)NC(=O)n1nc(SCC)n(C)c1=O [Compound 1.237]	very good herbidical action	very good herbicidal action
CCCOc1cccc(I)c1S(=O)(=O)NC(=O)n1nc(OC)n(C2CC2)c1=O [Compound 1.238]	very good herbidical action	very good herbicidal action
CCCOc1cccc(I)c1S(=O)(=O)NC(=O)n1nc(OCC)n(C2CC2)c1=O [Compound 1.241]	very good herbidical action	very good herbicidal action
CCCOc1cccc(I)c1S(=O)(=O)NC(=O)n1nc(OCCC)n(C2CC2)c1=O [Compound 1.244]	very good herbidical action	very good herbicidal action
COc1nn(C(=O)NS(=O)(=O)c2c(I)cccc2OC(C)C)c(=O)n1C [Compound 1.251]	very good herbidical action	very good herbicidal action
CCOc1nn(C(=O)NS(=O)(=O)c2c(I)cccc2OC(C)C)c(=O)n1C [Compound 1.254]	very good herbidical action	very good herbicidal action
CCCOc1nn(C(=O)NS(=O)(=O)c2c(I)cccc2OC(C)C)c(=O)n1C [Compound 1.255]	very good herbidical action	very good herbicidal action
CC(C)Oc1cccc(I)c1S(=O)(=O)NC(=O)n1nc(OC(C)C)n(C)c1=O [Compound 1.256]	very good herbidical action	very good herbicidal action
COc1nn(C(=O)NS(=O)(=O)c2c(I)cccc2OC(C)C)c(=O)n1C1CC1 [Compound 1.258]	very good herbidical action	very good herbicidal action
CCOc1nn(C(=O)NS(=O)(=O)c2c(I)cccc2OC(C)C)c(=O)n1C1CC1 [Compound 1.261]	very good herbidical action	very good herbicidal action
CCCOc1nn(C(=O)NS(=O)(=O)c2c(I)cccc2OC(C)C)c(=O)n1C1CC1 [Compound 1.264]	very good herbidical action	very good herbicidal action
CCCCOc1cccc(I)c1S(=O)(=O)NC(=O)n1nc(OC)n(C)c1=O [Compound 1.273]	very good herbidical action	very good herbicidal action
CCCCOc1cccc(I)c1S(=O)(=O)NC(=O)n1nc(OCC)n(C)c1=O [Compound 1.274]	very good herbidical action	very good herbicidal action
CCCCOc1cccc(I)c1S(=O)(=O)NC(=O)n1nc(OCCC)n(C)c1=O [Compound 1.275]	very good herbidical action	very good herbicidal action

Structure (SMILES)	herbicidal action against weed plants (visual scoring of plant damage or emergence damage) [1]	herbicidal action against weed plants (effect scored visually) [2]
CCCCOc1cccc(I)c1S(=O)(=O)NC(=O)n1nc(OC(C)C)n(C)c1=O [Compound 1.276]	very good herbidical action	very good herbicidal action
CCCCOc1cccc(I)c1S(=O)(=O)NC(=O)n1nc(OC)n(C2CC2)c1=O [Compound 1.278]	very good herbidical action	very good herbicidal action
CCCCOc1cccc(I)c1S(=O)(=O)NC(=O)n1nc(OCC)n(C2CC2)c1=O [Compound 1.279]	very good herbidical action	very good herbicidal action
CCCCOc1cccc(I)c1S(=O)(=O)NC(=O)n1nc(OCCC)n(C2CC2)c1=O [Compound 1.280]	very good herbidical action	very good herbicidal action
CCC(C)Oc1cccc(I)c1S(=O)(=O)NC(=O)n1nc(OC)n(C)c1=O (stereo not shown) [Compound 1.281]	very good herbidical action	very good herbicidal action
CCC(C)Oc1cccc(I)c1S(=O)(=O)NC(=O)n1nc(OC)n(C2CC2)c1=O (stereo not shown) [Compound 1.286]	very good herbidical action	very good herbicidal action
COc1nn(C(=O)NS(=O)(=O)c2c(I)cccc2OCC(C)C)c(=O)n1C [Compound 1.289]	very good herbidical action	very good herbicidal action
CCOc1nn(C(=O)NS(=O)(=O)c2c(I)cccc2OCC(C)C)c(=O)n1C [Compound 1.290]	very good herbidical action	very good herbicidal action
COc1nn(C(=O)NS(=O)(=O)c2c(I)cccc2OCC(C)C)c(=O)n1C1CC1 [Compound 1.294]	very good herbidical action	very good herbicidal action
CCOc1nn(C(=O)NS(=O)(=O)c2c(I)cccc2OCC(C)C)c(=O)n1C1CC1 [Compound 1.295]	very good herbidical action	very good herbicidal action
COc1nn(C(=O)NS(=O)(=O)c2c(I)cccc2OCC2CC2)c(=O)n1C [Compound 1.346]	very good herbidical action	very good herbicidal action
CCOc1nn(C(=O)NS(=O)(=O)c2c(I)cccc2OCC2CC2)c(=O)n1C [Compound 1.349]	very good herbidical action	very good herbicidal action
CCCOc1nn(C(=O)NS(=O)(=O)c2c(I)cccc2OCC2CC2)c(=O)n1C [Compound 1.350]	very good herbidical action	very good herbicidal action
COc1nn(C(=O)NS(=O)(=O)c2c(I)cccc2OCC2CC2)c(=O)n1C1CC1 [Compound 1.353]	very good herbidical action	very good herbicidal action
CCOc1nn(C(=O)NS(=O)(=O)c2c(I)cccc2OCC2CC2)c(=O)n1C1CC1 [Compound 1.356]	very good herbidical action	very good herbicidal action
CCCOc1nn(C(=O)NS(=O)(=O)c2c(I)cccc2OCC2CC2)c(=O)n1C1CC1 [Compound 1.359]	very good herbidical action	very good herbicidal action
COc1nn(C(=O)NS(=O)(=O)c2c(I)cccc2OC(F)(F)F)c(=O)n1C [Compound 1.440]	very good herbidical action	very good herbicidal action
